Experimental data from publication PMC10203105 (Communications Biology, 2023).

B1: AtDHDPR1 (dihydrodipicolinate reductase 1) (Arabidopsis thaliana) (protein)
chain: SMTAMADSGEEAVKSVLPGNGISIMVNGCSGKMGKAVIKAADSAGVNIVPISFGSAGEDGQRVEVCGKEITVHGPTEREKVLSSVFEKHPELIVVDYTIPSAVNDNAELYSKVGVPFVMGTTGGDRNKLYETVEEAKIYAVISPQMGKQVVAFLAAMEIMAEQFPGAFSGYSLDVMESHQASKLDASGTAKAVISCFQELGVSYDMDQIQLIRDPKQQVEMVGVPEEHISGHAFHLYHLTSPDETVSFEFQHNVCGRSIYAEGTVDAVLFLAKKIRLKADQRIYNMIDVLREGNMR

What was measured:
[1] = biological target: T1, AtDHDPR2 (dihydrodipicolinate reductase 2) (Arabidopsis thaliana, UniProt Q8LB01); experiment: DHDPS-DHDPR coupled spectrophotometric assay (NADPH oxidation, […] nm); assay type: biochemical
T1 construct: gene DAPB2; excludes the 53-amino-acid chloroplast transit peptide; tag cleaved
T1 sequence (Q8LB01 54-349): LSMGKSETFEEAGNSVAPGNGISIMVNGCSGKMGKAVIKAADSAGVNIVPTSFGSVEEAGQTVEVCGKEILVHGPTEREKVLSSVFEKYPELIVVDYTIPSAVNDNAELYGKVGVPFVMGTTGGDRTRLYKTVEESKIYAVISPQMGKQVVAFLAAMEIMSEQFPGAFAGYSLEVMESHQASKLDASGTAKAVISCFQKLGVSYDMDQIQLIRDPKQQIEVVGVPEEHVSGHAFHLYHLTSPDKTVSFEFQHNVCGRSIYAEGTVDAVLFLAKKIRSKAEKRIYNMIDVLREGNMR

[2] = biological target: T2, AtDHDPR1 (dihydrodipicolinate reductase 1) (Arabidopsis thaliana, UniProt O80574); experiment: as above; assay type: biochemical
T2 construct: gene DAPB1; excludes the first 51 amino acids (chloroplast transit peptide); tag cleaved
T2 sequence (O80574 52-347): B1 chain

[3] = substrate: NC(=O)C1=CN([C@@H]2O[C@H](COP(=O)(O)OP(=O)(O)OC[C@H]3O[C@@H](n4cnc5c(N)ncnc54)[C@H](OP(=O)(O)O)[C@@H]3O)[C@@H](O)[C@H]2O)C=CC1; experiment: purified protein; conditions: varied: cofactor
[4] = substrate: O=C(O)C1=NC(C(=O)O)CC=C1; experiment: purified protein; conditions: NADPH

Molecule | IC50 [1] [µM] | IC50 [2] [µM] | Km [3] [µM] | Km [4] [µM]
O=C(O)c1cccc(C(=O)O)n1 [2,6-PDC, 2,6-pyridinedicarboxylic acid] | 470 | 140 |  | 
B1 |  |  | 16 ± 2.6 | 37 ± 6.5
